Data published in US8748415B2 (priority 2011, dated 2014).

Each molecule was assayed on recombinant NL4-3 virus (Renilla luciferase in nef, Gag P373S) (assay: HIV cell culture assay (luciferase activity in MT-2 cells infected with NLRluc recombinant virus)). Conditions: NL43, MT-2 cells infected 4-5 days with NLRluc recombinant virus, class symbol.
Assay type: cell-based
How it was run: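 MT-2 cells in RPMI/10% FBS were infected with recombinant NL4-3 (NLRluc), produced by 293T transfection and titered in MT-2 by luciferase. Serial inhibitor dilutions were present throughout a 4–5 day infection. Antiviral activity was quantified as Renilla luciferase signal via a modified Dual Luciferase read.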

Row | SMILES | EC50
1 | C=C(C)[C@@H]1CC[C@]2(CNCCC(=O)N3CCSCC3)CC[C@]3(C)[C@H](CC[C@@H]4[C@@]5(C)CC=C(c6ccc(C(=O)O)cc6)C(C)(C)[C@@H]5CC[C@]43C)[C@@H]12 [Example 122, 4-((1R,3aS,5aR,5bR,7aR,11aS,11bR,13aR,13bR)-5a,5b,8,8,11a-pentamethyl-3a-((3-oxo-3-thiomorpholinopropylamino)methyl)-1-(prop-1-en-2-yl)-2,3,3a,4,5,5a,5b,6,7,7a,8,11,11a,11b,12,13,13a,13b-octadecahydro-1H-cyclopenta[a]chrysen-9-yl)benzoic acid] | < 100 nM
2 | C=C(C)[C@@H]1CC[C@]2(CNCCC(=O)N3CCC4(CCN(C)C4=O)CC3)CC[C@]3(C)[C@H](CC[C@@H]4[C@@]5(C)CC=C(c6ccc(C(=O)O)cc6)C(C)(C)[C@@H]5CC[C@]43C)[C@@H]12 [Example 123, 4-((1R,3aS,5aR,5bR,7aR,11aS,11bR,13aR,13bR)-5a,5b,8,8,11a-pentamethyl-3a-((3-(2-methyl-1-oxo-2,8-diazaspiro[4.5]decan-8-yl)-3-oxopropylamino)methyl)-1-(prop-1-en-2-yl)-2,3,3a,4,5,5a,5b,6,7,7a,8,11,11a,11b,12,13,13a,13b-octadecahydro-1H-cyclopenta[a]chrysen-9-yl)benzoic acid] | < 100 nM
3 | C=C(C)[C@@H]1CC[C@]2(CNCCC(=O)N3CCN(CCS(C)(=O)=O)CC3)CC[C@]3(C)[C@H](CC[C@@H]4[C@@]5(C)CC=C(c6ccc(C(=O)O)cc6)C(C)(C)[C@@H]5CC[C@]43C)[C@@H]12 [Example 124, 4-((1R,3aS,5aR,5bR,7aR,11aS,11bR,13aR,13bR)-5a,5b,8,8,11a-pentamethyl-3a-((3-(4-(2-(methylsulfonyl)ethyl)piperazin-1-yl)-3-oxopropylamino)methyl)-1-(prop-1-en-2-yl)-2,3,3a,4,5,5a,5b,6,7,7a,8,11,11a,11b,12,13,13a,13b-octadecahydro-1H-cyclopenta[a]chrysen-9-yl)benzoic acid] | < 100 nM
4 | C=C(C)[C@@H]1CC[C@]2(CNCCC(=O)N(C)CCS(C)(=O)=O)CC[C@]3(C)[C@H](CC[C@@H]4[C@@]5(C)CC=C(c6ccc(C(=O)O)cc6)C(C)(C)[C@@H]5CC[C@]43C)[C@@H]12 [Example 125, 4-((1R,3aS,5aR,5bR,7aR,11aS,11bR,13aR,13bR)-5a,5b,8,8,11a-pentamethyl-3a-((3-(methyl(2-(methylsulfonyl)ethyl)amino)-3-oxopropylamino)methyl)-1-(prop-1-en-2-yl)-2,3,3a,4,5,5a,5b,6,7,7a,8,11,11a,11b,12,13,13a,13b-octadecahydro-1H-cyclopenta[a]chrysen-9-yl)benzoic acid] | < 100 nM
5 | C=C(C)[C@@H]1CC[C@]2(CNCCC(=O)NC)CC[C@]3(C)[C@H](CC[C@@H]4[C@@]5(C)CC=C(c6ccc(C(=O)O)cc6)C(C)(C)[C@@H]5CC[C@]43C)[C@@H]12 [Example 127, 4-((1R,3aS,5aR,5bR,7aR,11aS,11bR,13aR,13bR)-5a,5b,8,8,11a-pentamethyl-3a-((3-(methylamino)-3-oxopropylamino)methyl)-1-(prop-1-en-2-yl)-2,3,3a,4,5,5a,5b,6,7,7a,8,11,11a,11b,12,13,13a,13b-octadecahydro-1H-cyclopenta[a]chrysen-9-yl)benzoic acid] | < 100 nM
6 | C=C(C)[C@@H]1CC[C@]2(CNCCC(=O)N3CCC(=O)CC3)CC[C@]3(C)[C@H](CC[C@@H]4[C@@]5(C)CC=C(c6ccc(C(=O)O)cc6)C(C)(C)[C@@H]5CC[C@]43C)[C@@H]12 [Example 128, 4-((1R,3aS,5aR,5bR,7aR,11aS,11bR,13aR,13bR)-5a,5b,8,8,11a-pentamethyl-3a-((3-oxo-3-(4-oxopiperidin-1-yl)propylamino)methyl)-1-(prop-1-en-2-yl)-2,3,3a,4,5,5a,5b,6,7,7a,8,11,11a,11b,12,13,13a,13b-octadecahydro-1H-cyclopenta[a]chrysen-9-yl)benzoic acid] | < 100 nM
7 | C=C(C)[C@@H]1CC[C@]2(CNCCC(=O)NC(C)(CO)CO)CC[C@]3(C)[C@H](CC[C@@H]4[C@@]5(C)CC=C(c6ccc(C(=O)O)cc6)C(C)(C)[C@@H]5CC[C@]43C)[C@@H]12 [Example 129, 4-((1R,3aS,5aR,5bR,7aR,11aS,11bR,13aR,13bR)-3a-((3-(1,3-dihydroxy-2-methylpropan-2-ylamino)-3-oxopropylamino)methyl)-5a,5b,8,8,11a-pentamethyl-1-(prop-1-en-2-yl)-2,3,3a,4,5,5a,5b,6,7,7a,8,11,11a,11b,12,13,13a,13b-octadecahydro-1H-cyclopenta[a]chrysen-9-yl)benzoic acid] | < 100 nM
8 | C=C(C)[C@@H]1CC[C@]2(CNCC(=O)N3CCCCC3)CC[C@]3(C)[C@H](CC[C@@H]4[C@@]5(C)CC=C(c6ccc(C(=O)O)cc6)C(C)(C)[C@@H]5CC[C@]43C)[C@@H]12 [Example 130, 4-((1R,3aS,5aR,5bR,7aR,11aS,11bR,13aR,13bR)-5a,5b,8,8,11a-pentamethyl-3a-((2-oxo-2-(piperidin-1-yl)ethylamino)methyl)-1-(prop-1-en-2-yl)-2,3,3a,4,5,5a,5b,6,7,7a,8,11,11a,11b,12,13,13a,13b-octadecahydro-1H-cyclopenta[a]chrysen-9-yl)benzoic acid] | < 100 nM
9 | C=C(C)[C@@H]1CC[C@]2(CNC(CC(=O)O)C(=O)N3CCC(F)(F)C3)CC[C@]3(C)[C@H](CC[C@@H]4[C@@]5(C)CC=C(c6ccc(C(=O)O)cc6)C(C)(C)[C@@H]5CC[C@]43C)[C@@H]12 (stereo partly drawn) [Example 131, 4-((1R,3aS,5aR,5bR,7aR,11aS,11bR,13aR,13bR)-3a-((3-carboxy-1-(3,3-difluoropyrrolidin-1-yl)-1-oxopropan-2-ylamino)methyl)-5a,5b,8,8,11a-pentamethyl-1-(prop-1-en-2-yl)-2,3,3a,4,5,5a,5b,6,7,7a,8,11,11a,11b,12,13,13a,13b-octadecahydro-1H-cyclopenta[a]chrysen-9-yl)benzoic acid] | < 100 nM
10 | C=C(C)[C@@H]1CC[C@]2(CN[C@@H](CC(=O)O)C(=O)N3CCS(=O)(=O)CC3)CC[C@]3(C)[C@H](CC[C@@H]4[C@@]5(C)CC=C(c6ccc(C(=O)O)cc6)C(C)(C)[C@@H]5CC[C@]43C)[C@@H]12 [Example 132, 4-thiomorpholinebutanoic acid, 4-((1R,3aS,5aR,5bR,7aR,11aS,11bR,13aR,13bR)-3a-((((1S)-1-(carboxymethyl)-2-(1,1-dioxido-4-thiomorpholinyl)-2-oxoethyl)amino)methyl)-1-isopropenyl-5a,5b,8,8,11a-pentamethyl-2,3,3a,4,5,5a,5b,6,7,7a,8,11,11a,11b,12,13,13a,13b-octadecahydro-1H-cyclopenta[a]chrysen-9-yl)benzoic acid] | < 100 nM
11 | C=C(C)[C@@H]1CC[C@]2(CNC(=O)CN3CCCC3=O)CC[C@]3(C)[C@H](CC[C@@H]4[C@@]5(C)CC=C(c6ccc(C(=O)O)cc6)C(C)(C)[C@@H]5CC[C@]43C)[C@@H]12 [Example 133, 4-((1R,3aS,5aR,5bR,7aR,11aS,11bR,13aR,13bR)-5a, 5b,8,8,11a-pentamethyl-3a-((2-(2-oxopyrrolidin-1-yl)acetamido)methyl)-1-(prop-1-en-2-yl)-2,3,3a,4,5,5a,5b,6,7,7a,8,11,11a,11b,12,13,13a,13b-octadecahydro-1H-cyclopenta[a]chrysen-9-yl)benzoic acid] | < 100 nM
12 | C=C(C)[C@@H]1CC[C@]2(CNC(=O)C3CC(=O)NC(=O)C3)CC[C@]3(C)[C@H](CC[C@@H]4[C@@]5(C)CC=C(c6ccc(C(=O)O)cc6)C(C)(C)[C@@H]5CC[C@]43C)[C@@H]12 [Example 134, 4-((1R,3aS,5aR,5bR,7aR,11aS,11bR,13aR,13bR)-3a-((2,6-dioxopiperidine-4-carboxamido)methyl)-5a,5b,8,8,11a-pentamethyl-1-(prop-1-en-2-yl)-2,3,3a,4,5,5a,5b,6,7,7a,8,11,11a,11b,12,13,13a,13b-octadecahydro-1H-cyclopenta[a]chrysen-9-yl)benzoic acid] | < 100 nM
13 | C=C(C)[C@@H]1CC[C@]2(CNC(=O)[C@H](N)CCS(C)(=O)=O)CC[C@]3(C)[C@H](CC[C@@H]4[C@@]5(C)CC=C(c6ccc(C(=O)O)cc6)C(C)(C)[C@@H]5CC[C@]43C)[C@@H]12 [Example 135, 4-((1R,3aS,5aR,5bR,7aR,11aS,11bR,13aR,13bR)-3a-(((R)-2-amino-4-(methylsulfonyl)butanamido)methyl)-5a,5b,8,8,11a-pentamethyl-1-(prop-1-en-2-yl)-2,3,3a,4,5,5a,5b,6,7,7a,8,11,11a,11b,12,13,13a,13b-octadecahydro-1H-cyclopenta[a]chrysen-9-yl)benzoic acid] | < 100 nM
14 | C=C(C)[C@@H]1CC[C@]2(CNC(=O)[C@@H]3CCCN3)CC[C@]3(C)[C@H](CC[C@@H]4[C@@]5(C)CC=C(c6ccc(C(=O)O)cc6)C(C)(C)[C@@H]5CC[C@]43C)[C@@H]12 [Example 136, 4-((1R,3aS,5aR,5bR,7aR,11aS,11bR,13aR,13bR)-5a,5b,8,8,11a-pentamethyl-1-(prop-1-en-2-yl)-3a-(((S)-pyrrolidine-2-carboxamido)methyl)-2,3,3a,4,5,5a,5b,6,7,7a,8,11,11a,11b,12,13,13a,13b-octadecahydro-1H-cyclopenta[a]chrysen-9-yl)benzoic acid] | < 100 nM

Same assay, conditions: NL43, MT-2 cells infected 4-5 days with NLRluc recombinant virus, numeric value

Row | SMILES | EC50
15 | C=C(C)[C@@H]1CC[C@]2(CNCCC(=O)N3CCC4(CC3)OCCO4)CC[C@]3(C)[C@H](CC[C@@H]4[C@@]5(C)CC=C(c6ccc(C(=O)O)cc6)C(C)(C)[C@@H]5CC[C@]43C)[C@@H]12 [Example 126] | 1 nM
